Reference: patent US8017784B2, “Substituted sulfoxide compounds, methods for preparing the same and use thereof” (Livzon Pharmaceutical Group, Inc., priority 2005, dated 2011)

Test system: Acute Gastric Ulcer of Rats
Test: Effect on acute gastric ulcer of rats (pyloric ligation method, Shay method)
Format: in vivo
Conditions: for Average Volume of Gastric Juice / Index of Ulcer (sum of the long diameter of each ulcer) / Inhibition Ratio of gastric juice / Inhibition Ratio of index of ulcer: SD female rats, 3 mg/kg via duodenum; for Average Volume of Gastric Juice / Index of Ulcer (sum of the long diameter of each ulcer): 6 hours after dosing; for Inhibition Ratio of gastric juice / Inhibition Ratio of index of ulcer: 6 hours, versus control group; for Inhibition of gastric juice secretion and ulceration compared with racemate: rats, result in words
Method: The effect of optically pure (+)/(−)-5-(1H-pyrrol-1-yl)-2-[[(4-methoxy-3-methyl-2-pyridyl)-methyl]sulfinyl]-1-hydro-benzimidazole on the acute gastric ulcer of rats were investigated using a pyloric ligation method (Shay method), and the results were compared with a normal control group and a racemate group. The specific test methods were as follows.
Twenty-six healthy SD female adult rats were divided randomly into 4 groups and fasted, except water, for 24 hours. Each rat was then anesthesized with 30 mg/kg Sodium Pentobarbital and subjected to pyloric ligation. After that, 3 groups of rats (treated group) were administered immediately via dodecadactylon with a racemate, a levo-enantiomer and a dextro-enantiomer of 5-(1H-pyrrol-1-yl)-2-[[(4-methoxy-3-methyl-2-pyridyl)-methyl]sulfinyl]-1-hydro-benzimidazole, respectively, at a dose of 3 mg/kg, and the other group (control group) is administered with the same volume of solvent.
All rats were then fasted including water for 6 hours followed by being sacrificed. The stomach was removed from rats after cardiac orifice ligation, and the volume of gastric juice was collected. After being fixed with 10% formalin solution, the stomach was incised along the greater curvature of stomach, the gastric wall was unwraped, and the degree and number of ulcers of the gastric mucosa were observed visually. Sum of the long diameter of each ulcer was defined as the index of ulcer. All rats were housed in metabolic cages during the test.

| SMILES | Average Volume of Gastric Juice (3 mg/kg) [mL] | Index of Ulcer (sum of the long diameter of each ulcer) (3 mg/kg) [mm] | Inhibition Ratio of gastric juice (3 mg/kg) [%] | Inhibition Ratio of index of ulcer (3 mg/kg) [%] | Inhibition Ratio of index of ulcer [%] | Inhibition of gastric juice secretion and ulceration compared with racemate (3 mg/kg) |
| --- | --- | --- | --- | --- | --- | --- |
| COc1ccnc(C[S+]([O-])c2nc3cc(-n4cccc4)ccc3[nH]2)c1C (racemic) [Racemate, 5-(1H-pyrrol-1-yl)-2-[[(4-methoxy-3-methyl-2-pyridyl)-methyl]sulfinyl]-1-hydro-benzimidazole, reference compound] | 3.2 ± 2.3 | 14 ± 8 | 30.8 | 41.8 | – | – |
| COc1ccnc(C[S+]([O-])c2nc3cc(-n4cccc4)ccc3[nH]2)c1C (single isomer, unassigned; (+)) [Dextro-enantiomer, (+)-5-(1H-pyrrol-1-yl)-2-[[(4-methoxy-3-methyl-2-pyridyl)-methyl]sulfinyl]-1-hydro-benzimidazole] | 2.6 ± 1.1 | 6 ± 7 | 43.2 | – | 75.6 | more effective in inhibiting gastric juice secretion and ulceration as compared with their racemate |
| COc1ccnc(C[S+]([O-])c2nc3cc(-n4cccc4)ccc3[nH]2)c1C (single isomer, unassigned; (-)) [Levo-enantiomer, (−)-5-(1H-pyrrol-1-yl)-2-[[(4-methoxy-3-methyl-2-pyridyl)-methyl]sulfinyl]-1-hydro-benzimidazole] | 1.4 ± 1.0 | 6 ± 6 | 68.3 | – | 75.6 | more effective in inhibiting gastric juice secretion and ulceration as compared with their racemate |
